In ChEMBL document CHEMBL1125176, “Synthesis of structural analogues of lyngbyatoxin A and their evaluation as activators of protein kinase C” (J Med Chem, 1991) one finds Activity (pM min-1 (mg of protein)-1) data, which are given here for nine molecules.

The target in this assay is Protein kinase C (PKC) (Homo sapiens) (UniProt O94806+P41743+P17252+P05129+Q05655+P05771+Q05513+Q02156+P24723+Q15139+Q04759). Description: Activation of partially purified HeLa cell protein kinase C, 32P incorporation into calf thymus histone(III-S).
In the case of `CC(C)=CCCCc1ccc2c3c(c[nH]c13)C[C@H](CO)NC(=O)[C@H](C(C)C)N2C`, the Activity (pM min-1 (mg of protein)-1) is 415.
In turn, `CC(C)[C@H]1C(=O)N[C@@H](CO)Cc2c[nH]c3c(CCCCO)ccc(c23)N1C` had an Activity (pM min-1 (mg of protein)-1) of 163.
Molecule `CCCCCCc1ccc2c3c(c[nH]c13)C[C@@H](CO)NC(=O)[C@H](C(C)C)N2C` showed an Activity (pM min-1 (mg of protein)-1) of 606.
As to `CC(C)[C@H]1C(=O)N[C@H](CO)Cc2c[nH]c3c(CCCCO[Si](C)(C)C(C)(C)C)ccc(c23)N1C`, the Activity (pM min-1 (mg of protein)-1) worked out at 703.
The same measure for `CCCCCCCCCCCCCC(=O)O[C@@H]1[C@@H](C)[C@@]2(O)[C@@H](C=C(CO)C[C@]3(O)C(=O)C(C)=C[C@@H]23)[C@@H]2C(C)(C)[C@]12OC(C)=O`: 899; for `CC(C)[C@H]1C(=O)N[C@H](CO)Cc2c[nH]c3c(CCCCO)ccc(c23)N1C`: 256.
Consider `CC(C)[C@H]1C(=O)N[C@@H](CO)Cc2c[nH]c3c(CCCCO[Si](C)(C)C(C)(C)C)ccc(c23)N1C`, for which the Activity (pM min-1 (mg of protein)-1) turned out to be 403.
Molecule `CC(C)[C@H]1C(=O)N[C@H](CO)Cc2c[nH]c3cccc(c23)N1C` displayed an Activity (pM min-1 (mg of protein)-1) of 454.
As for `CC(C)=CCCCc1ccc2c3c(c[nH]c13)C[C@@H](CO)NC(=O)[C@H](C(C)C)N2C`, the Activity (pM min-1 (mg of protein)-1) was determined as 763.
